The results in this text go back to BindingDB's records for patent US8969325 (Abbvie, 2015).

Usually IC50 stands for the concentration at which inhibition is half-maximal. A lower IC50 goes with greater potency.

SMILES strings stand for the structures.

The target of this test is Transient receptor potential cation channel subfamily V member 1 (Homo sapiens, UniProt Q8NER1). The experiment in a line: Activation Assay. As for the experimental part:
Expression plasmids encoding the hTRPV1 cDNA were transfected into HEK293 cells using Lipofectamine. Forty-eight hours after transfection, the neomycin-resistant cells were selected with growth medium containing 800 ug/mL Geneticin (Life Technologies, formerly Gibco BRL). Surviving individual colonies were isolated and screened for TRPV1 activity.

Chain of Transient receptor potential cation channel subfamily V member 1 (Q8NER1 whole entry): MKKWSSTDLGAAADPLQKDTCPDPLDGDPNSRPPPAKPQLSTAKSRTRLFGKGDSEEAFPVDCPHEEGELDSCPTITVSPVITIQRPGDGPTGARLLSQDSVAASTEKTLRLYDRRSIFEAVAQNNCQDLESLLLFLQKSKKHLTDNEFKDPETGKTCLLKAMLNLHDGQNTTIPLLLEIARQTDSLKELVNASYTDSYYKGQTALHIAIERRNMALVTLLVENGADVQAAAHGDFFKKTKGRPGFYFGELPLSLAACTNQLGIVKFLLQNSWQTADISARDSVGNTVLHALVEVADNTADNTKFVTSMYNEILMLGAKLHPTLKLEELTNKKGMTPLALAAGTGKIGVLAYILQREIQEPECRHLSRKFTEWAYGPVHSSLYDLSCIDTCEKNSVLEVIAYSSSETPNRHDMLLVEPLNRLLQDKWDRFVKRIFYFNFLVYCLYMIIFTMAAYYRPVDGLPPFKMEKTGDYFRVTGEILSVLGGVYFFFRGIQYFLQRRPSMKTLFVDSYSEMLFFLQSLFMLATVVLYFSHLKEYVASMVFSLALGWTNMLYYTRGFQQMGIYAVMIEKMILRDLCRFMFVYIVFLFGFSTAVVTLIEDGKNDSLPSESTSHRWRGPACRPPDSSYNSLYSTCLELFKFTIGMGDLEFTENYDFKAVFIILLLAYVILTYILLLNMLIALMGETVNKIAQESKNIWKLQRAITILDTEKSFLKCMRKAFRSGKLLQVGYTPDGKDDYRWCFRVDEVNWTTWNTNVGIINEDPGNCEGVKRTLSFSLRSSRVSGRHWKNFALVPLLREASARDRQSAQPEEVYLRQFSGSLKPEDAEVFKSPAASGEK

`CN1C(=O)NCc2c(NC(=O)N[C@@H]3CC(C)(C(F)F)Oc4cc(Cl)ccc43)cccc21` (stereo partly specified) [US8969325, 136]: the IC50 worked out at 21 nM.
